One assay concerns the target T1, progesterone receptor (Homo sapiens, UniProt P06401).
T1 construct: host or cells: HEK 293T
T1 sequence (P06401 679-913 limits assumed): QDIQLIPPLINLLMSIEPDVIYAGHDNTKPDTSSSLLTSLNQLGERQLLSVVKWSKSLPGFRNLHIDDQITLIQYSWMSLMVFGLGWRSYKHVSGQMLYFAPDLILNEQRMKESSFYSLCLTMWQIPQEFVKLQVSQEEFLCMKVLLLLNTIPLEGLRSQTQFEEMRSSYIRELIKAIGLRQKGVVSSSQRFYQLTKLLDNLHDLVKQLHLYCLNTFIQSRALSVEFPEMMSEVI
The assay is described as follows: Progesterone Antagonist Screen (SelectScreen cell-based nuclear receptor profiling, GeneBLAzer beta-lactamase reporter). Conditions: relative to RU486, which is 100%; progesterone receptor-LBD-UAS-bla HEK 293T cells; activated by control agonist R5020 at EC80. How it is done: (§1) Determination of the agonist/antagonist nature of the test compounds was carried out using Invitrogen's SelectScreen™ Cell-based nuclear receptor profiling service which uses the GeneBLAzer® Beta-lactamase reporter technology. Basically this assay uses a Beta-lactamase cDNA under transcriptional control of an Upstream Activator Sequence (UAS). The UAS is activated by the GAL4 transcription factor DNA binding domain (DBD), which is expressed as a fusion protein with the target receptor ligand binding domain (LBD). Upon ligand binding, the GAL4(DBD)-NR(LDB) binds to the UAS, which controls transcription of Beta-lactamase. Beta-lactamase cleaves a special engineered fluorescent substrate which results in a change in the measured fluorescence wavelength.
The generalized protocol used for the Progesterone Antagonist Screen, activated by control Agonist R5020 is as follows:
(§2) The progesterone receptor-LBD-UAS-bla HEK 293T cells are thawed and prepared as described above for the Agonist screen. 4 μL of a 10× serial dilution of control antagonist RU486 (starting concentration, 100 nM) or test compounds are added to appropriate wells of a TC-Treated assay plate. 32 μL of cell suspension is added to the wells which is then pre-incubated at 37° C./5% CO2 in a humidified incubator with test compounds and control antagonist titration for 30 min. 4 μL of a 10× control agonist (see above) at the predetermined EC80 concentration is added to wells containing the control antagonist or test compounds. The plate is incubated for 16-24 h at 37° C./5% CO2 in a humidified incubator. 8 μL of 1 μM Substrate Loading Solution is added to each well and the plate is incubated for 2 h at room temperature. The plate is then read on a fluorescence plate reader (Tecan Safire).

The target of another assay is T2, glucocorticoid receptor (Homo sapiens, UniProt P04150).
T2 construct: host or cells: HEK 293T
T2 sequence (P04150 524-758 limits assumed): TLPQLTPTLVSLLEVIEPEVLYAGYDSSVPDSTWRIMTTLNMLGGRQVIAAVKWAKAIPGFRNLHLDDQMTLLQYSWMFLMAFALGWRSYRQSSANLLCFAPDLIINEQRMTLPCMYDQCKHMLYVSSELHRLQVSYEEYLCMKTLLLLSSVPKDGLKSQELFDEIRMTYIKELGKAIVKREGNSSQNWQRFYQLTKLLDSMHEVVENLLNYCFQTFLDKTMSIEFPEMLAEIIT
The assay is described as follows: Glucocorticoid Antagonist Screen (SelectScreen cell-based nuclear receptor profiling, GeneBLAzer beta-lactamase reporter). To be noted: relative to RU486, which is 100%; glucocorticoid receptor-LBD-UAS-bla HEK 293T cells; activated by control agonist Dexamethasone. How it is done: as §1, §2
The generalized protocol for the Glucocorticoid Antagonist Screen activated by control Agonist Dexamethasone was carried out as described for the Progesterone Antagonist Screen with the exception that glucocorticoid receptor-LBD-UAS-bla HEK 293T cells were used. The control antagonist used for the glucocorticoid assay was also RU486.

This is an account of results in patent publication US9096641B2, “Imidazolyl progesterone antagonists” (Evestra, Inc., priority 2013, dated 2015).

Consider `C[C@]12C[C@H](c3ccc(-n4ccnc4)cc3)C3=C4CCC(=O)C=C4CC[C@H]3[C@@H]1CC[C@@]2(O)C(F)(F)C(F)(F)F` [Ia, 11β-(4′-(1-imidazolyl)phenyl)-17β-hydroxy-17-(1,1,2,2,2-pentafluoroethyl)-estra-4,9-diene-3-one], for which the “Progesterone Antagonist (%)” value at progesterone receptor was found to be 267%. Further, the “Glucocorticoid Antagonist (%)” value on glucocorticoid receptor came out at 9%.
The matching figures for `C[C@]12C[C@H](c3ccc(-n4ccnc4)cc3)C3=C4CCC(=O)C=C4CC[C@H]3[C@@H]1CC[C@@]2(O)C#CC(F)(F)F` [Ib, 11β-(4′-(1-imidazolyl)phenyl)-17β-hydroxy-17-(3,3,3-trifluoro-1-propynyl)-estra-4,9-diene-3-one]: 34% and 83%.
The matching figures for `C[C@]12C[C@H](c3ccc(-n4ccnc4)cc3)C3=C4CCC(=O)C=C4CCC3C1CC[C@@]2(O)/C=C/C(F)(F)F` (stereo partly drawn) [Ic, 11β-(4′-(1-imidazolyl)phenyl)-17β-hydroxy-17-(3,3,3-trifluoroprop-1(E)-enyl)-estra-4,9-diene-3-one]: 54% and 31%.
The matching figures for `C=CC(F)(F)[C@]1(O)CC[C@H]2[C@@H]3CCC4=CC(=O)CCC4=C3[C@@H](c3ccc(-n4ccnc4)cc3)C[C@@]21C` [Id, 11β-(4′-(1-imidazolyl)phenyl)-17β-hydroxy-17-(1,1-difluoroprop-2-enyl)-estra-4,9-diene-3-one]: 90% and 13%.
Consider `C=C1CCOC12CCC1C3CCC4=CC(=O)CCC4=C3[C@@H](c3ccc(-n4ccnc4)cc3)C[C@@]12C` (stereo partly drawn) [Ie, 11β-(4′-[1-imidazolyl]phenyl)-17,23-epoxy-19,24-dinor-17α-chola-4,9,20-triene-3-one], for which, on progesterone receptor, the “Progesterone Antagonist (%)” value worked out at 163%. The “Glucocorticoid Antagonist (%)” value on glucocorticoid receptor was found to be 5%.
Take `CC(=O)c1ccc([C@H]2C[C@@]3(C)[C@@H](CC[C@@]3(O)C(F)(F)C(F)(F)F)[C@@H]3CCC4=CC(=O)CCC4=C32)cc1` [ZK 230211, reference compound]: the “Progesterone Antagonist (%)” value on progesterone receptor is 81%. Moreover, the “Glucocorticoid Antagonist (%)” value at glucocorticoid receptor turned out to be 6%.
